molecular target: Inosine-5'-monophosphate dehydrogenase 2 (Homo sapiens, UniProt P12268); test: Inhibition of human Inosine-5'-monophosphate dehydrogenase 2

Row | SMILES | IC50
1 | CC(C)(C)NC(=O)C(=O)Nc1ccc(-c2cnco2)c(Cl)c1 | 55 nM
2 | COc1cc(NC(=O)CC(=O)Nc2ccccc2)ccc1-c1cnco1 | 400 nM
3 | COc1cc(NC(=O)C(=O)NC(C)(C)CN(C)C)ccc1-c1cnco1 | 47 nM
4 | CC(C)(C)NC(=O)C(=O)Nc1ccc(-c2cnco2)c(Br)c1 | 50 nM
5 | COC(=O)C(C)(C)NC(=O)C(=O)Nc1ccc(-c2cnco2)c(OC)c1 | 74 nM
6 | COc1cc(NC(=O)C(=O)N(C)C(C)(C)C)ccc1-c1cnco1 | > 10000 nM
7 | COc1cc(NC(=O)C(=O)NC(C)(C)C)ccc1-c1cnco1 | 10 nM
8 | COc1cc(NC(=O)C(=O)Nc2cccc(CNC(=O)O[C@@H]3CCOC3)c2)ccc1-c1cnco1 | 30 nM
9 | COc1cc(NC(=O)CC(=O)Nc2cccc(C)c2)ccc1-c1cnco1 | 440 nM
10 | COc1cc(NC(=O)C(=O)N(C)c2ccccc2)ccc1-c1cnco1 | > 10000 nM
11 | COc1cc(NC(=O)C(=O)NC(C)C)ccc1-c1cnco1 | > 10000 nM
12 | COc1cc(NC(=O)C(=O)NC(C)(C)CO)ccc1-c1cnco1 | 19 nM
13 | CC(C)(C)NC(=O)C(=O)Nc1ccc(-c2cnco2)cc1 | > 10000 nM
14 | Cc1ncoc1-c1ccc(NC(=O)C(=O)NC(C)(C)C)cc1 | > 10000 nM
15 | COc1cc(NC(=O)C(=O)NCc2ccccc2)ccc1-c1cnco1 | > 10000 nM
16 | COc1cc(NC(=O)C(=O)NC2CCCCC2)ccc1-c1cnco1 | > 10000 nM
17 | COc1cc(NC(=O)C(=O)NNc2ccccc2)ccc1-c1cnco1 | > 10000 nM
18 | CCCNC(=O)C(=O)Nc1ccc(-c2cnco2)c(OC)c1 | > 10000 nM
19 | COc1cc(NC(=O)C(=O)Nc2ccccc2)ccc1-c1cnco1 | 52 nM
20 | COc1cc(NC(=O)C(=O)NC(C)(C)C(=O)O)ccc1-c1cnco1 | > 10000 nM
21 | COc1cc(NC(=O)C(=O)NC2(CO)CCCC2)ccc1-c1cnco1 | 18 nM
